Activity calls are given as the source filed them. Unless noted, no cut-off for these calls is given here.
Legend:
[1] = biological target: T1, Kappa-type opioid receptor (Homo sapiens, UniProt P41145); test: SAR analysis of small molecule agonists of the kappa opioid receptor via a luminescent beta-arrestin assay - Set 3. [Related pubchem assays (depositor defined):AID1777, AID1785, AID1786, AID1966, AID2133, AID2136, AID2284, AID2500]; type: functional
[2] = biological target: Mu-type opioid receptor (Homo sapiens, UniProt P35372); test: SAR Analysis of Agonists of the MOR Receptor using an Image-Based Assay - Set 3. [Related pubchem assays (depositor defined):AID1777, AID1785, AID1786, AID1966, AID2133, AID2136, AID2284, AID2285, AID2352]; type: functional
[3] = biological target: T1, Kappa-type opioid receptor; test: KOR agonist analogs, arrestin-GFP redistribution, SAR follow-up, imaging, image-based, set 3 (AID 488833); type: functional
[4] = biological target: Delta-type opioid receptor (Homo sapiens, UniProt P41143); test: SAR Analysis of Agonists of the DOR Receptor using an Image-Based Assay - Set 3. [Related pubchem assays (depositor defined):AID1777, AID1786]; type: functional
[5] = biological target: Runt-related transcription factor 1/Core-binding factor subunit beta (Homo sapiens, UniProt Q01196+Q13951); test: Confirmation of compounds inhibiting the binding between the RUNX1 Runt domain and CBFb-SMMHC via a fluorescence resonance energy transfer (FRET) assay. [Related pubchem assays (depositor defined):AID1434, AID1438, AID1496, AID1550, AID1645]; type: protein assay
[6] = biological target: T2, Tyrosine-protein phosphatase non-receptor type 7 (Homo sapiens, UniProt P35236); type: functional
T2 sequence (P35236 whole entry): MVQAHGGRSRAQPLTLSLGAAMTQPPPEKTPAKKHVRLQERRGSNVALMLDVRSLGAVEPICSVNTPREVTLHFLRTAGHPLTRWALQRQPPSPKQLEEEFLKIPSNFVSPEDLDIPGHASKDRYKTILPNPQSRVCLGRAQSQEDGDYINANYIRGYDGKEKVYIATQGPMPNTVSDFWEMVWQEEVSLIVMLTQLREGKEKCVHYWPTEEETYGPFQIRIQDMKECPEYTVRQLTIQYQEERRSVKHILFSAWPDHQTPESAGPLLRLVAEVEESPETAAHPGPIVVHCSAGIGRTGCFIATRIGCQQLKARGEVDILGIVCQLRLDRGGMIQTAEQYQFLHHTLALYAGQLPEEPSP

[7] = biological target: T3, Tyrosine-protein phosphatase non-receptor type 22 (Homo sapiens, UniProt Q9Y2R2); type: functional
T3 sequence (Q9Y2R2 whole entry): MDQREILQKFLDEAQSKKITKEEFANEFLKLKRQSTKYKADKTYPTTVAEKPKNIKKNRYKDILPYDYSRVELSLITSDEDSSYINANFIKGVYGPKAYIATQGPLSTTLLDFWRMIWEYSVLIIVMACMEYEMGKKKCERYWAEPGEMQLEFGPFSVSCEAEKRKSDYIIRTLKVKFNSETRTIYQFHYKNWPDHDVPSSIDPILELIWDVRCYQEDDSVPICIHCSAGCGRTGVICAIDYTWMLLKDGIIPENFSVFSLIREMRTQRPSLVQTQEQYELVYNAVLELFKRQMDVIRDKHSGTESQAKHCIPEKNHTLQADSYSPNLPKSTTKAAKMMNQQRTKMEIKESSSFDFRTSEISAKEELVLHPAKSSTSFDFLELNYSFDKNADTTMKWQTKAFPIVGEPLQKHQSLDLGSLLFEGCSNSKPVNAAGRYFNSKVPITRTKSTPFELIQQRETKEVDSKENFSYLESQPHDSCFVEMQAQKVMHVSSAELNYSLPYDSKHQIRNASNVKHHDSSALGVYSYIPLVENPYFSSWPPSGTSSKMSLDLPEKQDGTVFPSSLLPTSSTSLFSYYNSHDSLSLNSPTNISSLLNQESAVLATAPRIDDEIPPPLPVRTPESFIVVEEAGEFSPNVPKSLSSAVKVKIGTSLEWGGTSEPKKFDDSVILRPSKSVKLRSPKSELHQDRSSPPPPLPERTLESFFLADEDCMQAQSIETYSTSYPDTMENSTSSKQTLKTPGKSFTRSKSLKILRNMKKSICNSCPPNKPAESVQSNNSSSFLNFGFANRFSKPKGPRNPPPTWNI

[8] = biological target: T3, Tyrosine-protein phosphatase non-receptor type 22; type: functional; remark: listed apart in the source
[9] = biological target: Sphingosine 1-phosphate receptor 5 (Homo sapiens, UniProt Q9H228); test: (§1) Late-stage fluorescence-based dose-response cell-based assay to identify agonists of the Sphingosine 1-Phosphate Receptor 4 (S1P4): Sphingosine 1-Phosphate Receptor 5 (S1P5) counterscreen assay. [Related pubchem assays (depositor defined):AID1509, AID1523, AID1563, AID1686, AID1701, AID1801, AID463107, AID463225, AID504400]; type: functional
[10] = biological target: Sphingosine 1-phosphate receptor 1 (Homo sapiens, UniProt P21453); test: as §1, with “1 (S1P1)” for “5 (S1P5)”; type: functional
[11] = biological target: T4, Sphingosine 1-phosphate receptor 4 (Homo sapiens, UniProt O95977); test: S1P4 receptor agonists, human, late-stage follow-up, cell-based, fluorescence, synthesized compounds (AID 463107); type: functional
T4 sequence (O95977 whole entry): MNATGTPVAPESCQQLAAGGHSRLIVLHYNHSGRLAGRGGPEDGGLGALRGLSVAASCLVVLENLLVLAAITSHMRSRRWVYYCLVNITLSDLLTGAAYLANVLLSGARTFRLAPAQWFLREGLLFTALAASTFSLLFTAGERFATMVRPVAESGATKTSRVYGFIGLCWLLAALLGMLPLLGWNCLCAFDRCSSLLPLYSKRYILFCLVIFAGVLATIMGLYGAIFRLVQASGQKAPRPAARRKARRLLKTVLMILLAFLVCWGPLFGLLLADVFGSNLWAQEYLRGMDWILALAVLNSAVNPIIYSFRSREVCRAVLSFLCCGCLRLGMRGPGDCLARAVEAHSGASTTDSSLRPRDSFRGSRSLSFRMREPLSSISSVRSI

[12] = biological target: Sphingosine 1-phosphate receptor 3 (Homo sapiens, UniProt Q99500); test: as §1, with “3 (S1P3)” for “5 (S1P5)”; type: functional
[13] = biological target: Sphingosine 1-phosphate receptor 2 (Homo sapiens, UniProt O95136); test: as §1, with “2 (S1P2)” for “5 (S1P5)”; type: functional
[14] = biological target: T5, RNA-binding protein pos-1 (Caenorhabditis elegans, UniProt G5EF15); test: inhibitors of POS-1/mex-3 RNA binding, dose response, biochemical, fluorescence polarization (AID 1964);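 note: purified POS-1 fused to maltose binding protein made in E. coli; potency of compounds blocking POS-1 binding to fluorescent RNA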
T5 sequence (G5EF15 whole entry): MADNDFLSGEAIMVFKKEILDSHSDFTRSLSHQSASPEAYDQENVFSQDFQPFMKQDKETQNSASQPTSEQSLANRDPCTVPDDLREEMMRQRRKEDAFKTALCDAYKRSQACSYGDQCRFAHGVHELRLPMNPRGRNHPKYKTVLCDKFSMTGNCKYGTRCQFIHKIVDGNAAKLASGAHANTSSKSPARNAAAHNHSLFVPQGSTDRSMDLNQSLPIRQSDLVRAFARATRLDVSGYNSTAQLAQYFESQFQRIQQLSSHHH

[15] = biological target: T6, Alkaline phosphatase, tissue-nonspecific isozyme (Homo sapiens, UniProt P05186); test: TNAP enzyme inhibition by screening hits, dose response, selectivity assay for mouse IAP inhibitor project, biochemical, human TNAP, uHTS hits (AID 488906); type: functional
T6 sequence (P05186 whole entry): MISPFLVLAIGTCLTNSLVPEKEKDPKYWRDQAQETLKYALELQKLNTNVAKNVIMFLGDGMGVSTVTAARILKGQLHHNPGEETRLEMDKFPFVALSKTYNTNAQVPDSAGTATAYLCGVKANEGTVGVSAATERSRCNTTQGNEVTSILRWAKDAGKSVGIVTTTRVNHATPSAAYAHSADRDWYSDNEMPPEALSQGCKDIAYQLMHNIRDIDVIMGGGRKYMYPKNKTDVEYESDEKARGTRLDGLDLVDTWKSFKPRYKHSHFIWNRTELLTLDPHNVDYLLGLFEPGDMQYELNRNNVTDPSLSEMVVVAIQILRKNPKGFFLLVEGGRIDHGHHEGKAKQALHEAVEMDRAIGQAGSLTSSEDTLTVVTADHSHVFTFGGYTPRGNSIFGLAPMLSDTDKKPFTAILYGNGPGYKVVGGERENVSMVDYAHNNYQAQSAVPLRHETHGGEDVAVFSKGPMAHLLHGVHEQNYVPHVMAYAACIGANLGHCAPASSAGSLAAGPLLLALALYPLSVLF

[16] = biological target: T7, Zinc finger protein mex-5 (Caenorhabditis elegans, UniProt Q9XUB2); test: MEX-5/TCR-2 RNA interaction inhibitors, dose response, biochemical, C. elegans, fluorescence polarization (AID 1960)
T7 sequence (Q9XUB2 whole entry): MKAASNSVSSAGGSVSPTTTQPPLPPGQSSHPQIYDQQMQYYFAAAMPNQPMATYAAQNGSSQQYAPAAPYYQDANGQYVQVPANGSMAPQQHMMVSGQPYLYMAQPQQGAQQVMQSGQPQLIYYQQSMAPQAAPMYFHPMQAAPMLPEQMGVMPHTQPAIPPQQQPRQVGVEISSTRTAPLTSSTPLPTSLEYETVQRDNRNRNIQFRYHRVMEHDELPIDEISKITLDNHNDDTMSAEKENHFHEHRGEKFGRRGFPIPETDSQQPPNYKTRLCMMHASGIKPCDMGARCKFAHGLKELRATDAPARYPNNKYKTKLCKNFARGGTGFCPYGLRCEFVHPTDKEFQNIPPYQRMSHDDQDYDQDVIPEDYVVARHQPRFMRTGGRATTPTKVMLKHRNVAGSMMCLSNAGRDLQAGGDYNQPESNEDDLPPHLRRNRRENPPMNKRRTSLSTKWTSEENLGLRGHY

[17] = biological target: Intestinal-type alkaline phosphatase (Homo sapiens, UniProt P09923); test: activation of human intestinal alkaline phosphatase – biochemical, dose response (AID 488873); type: functional
[18] = biological target: T8, Intestinal-type alkaline phosphatase (Mus musculus, UniProt P24822); test: PubChem AID 488785; type: functional
[19] = biological target: T9, Peroxisome proliferator-activated receptor gamma (Homo sapiens, UniProt P37231); test: PPARg ligand-binding domain binders, dose response, PPARg partial agonist project, biochemical, TR-FRET, LanthaScreen (AID 504446)
[20] = biological target: Peroxisome proliferator-activated receptor alpha (Homo sapiens, UniProt Q07869); test: Late stage assay provider counterscreen for partial agonists of the peroxisome proliferator-activated receptor gamma (PPARg): Luminescence-based cell-based dose response assay for partial agonists of the peroxisome proliferator-activated receptor alpha (PPARA). [Related pubchem assays (depositor defined):AID1051, AID1300, AID1319, AID1679, AID1808, AID504446, AID504447, AID504452, AID504453, AID631]; type: functional
[21] = biological target: T9, Peroxisome proliferator-activated receptor gamma; test: PPARg partial agonists, dose response, cell-based, luminescence, assay provider (AID 504447); type: functional
[22] = biological target: T8, Intestinal-type alkaline phosphatase; test: mouse intestinal alkaline phosphatase activators, dose response, biochemical, luminescence, uHTS hits (AID 488783); type: functional
[23] = biological target: T6, Alkaline phosphatase, tissue-nonspecific isozyme; test: TNAP enzyme activators, dose response, selectivity assay for mouse IAP activator project, biochemical, TNAP isozyme, mouse IAP uHTS hits (AID 488880); type: functional
[24] = biological target: T10, DNA dC->dU-editing enzyme APOBEC-3A (Homo sapiens, UniProt P31941); test: SAR analysis of small molecule inhibitors of APOBEC3A DNA Deaminase via a fluorescence-based single-stranded DNA deaminase assay.; type: functional; conditions: read-out: IC50_Mean
[25] = biological target: Large T antigen (Simian virus 40, UniProt P03070); type: functional, Betapolyomavirus macacae;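 note: Confirmatory-stage PubChem screen for compounds that inhibit SV40 T antigen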
[26] = biological target: T10, DNA dC->dU-editing enzyme APOBEC-3A; test: SAR analysis of small molecule inhibitors of APOBEC3A DNA Deaminase via a fluorescence-based single-stranded DNA deaminase assay - Set 2.; type: functional; conditions: read-out: IC50_Mean
[27] = biological target: Induced myeloid leukemia cell differentiation protein Mcl-1 (Homo sapiens, UniProt Q07820); type: functional
[28] = biological target: T11, DNA dC->dU-editing enzyme APOBEC-3G (Homo sapiens, UniProt Q9HC16); test: SAR analysis of small molecule inhibitors of APOBEC3G DNA Deaminase via a fluorescence-based single-stranded DNA deaminase assay - Set 2.; type: functional; conditions: read-out: IC50_Mean
[29] = biological target: T11, DNA dC->dU-editing enzyme APOBEC-3G; test: APOBEC3G deaminase inhibitors, SAR follow-up, biochemical, fluorescence, single-stranded DNA substrate (AID 602136); type: functional; conditions: read-out: IC50_Mean

T8 sequence (P24822 whole entry, the tested form may be a part): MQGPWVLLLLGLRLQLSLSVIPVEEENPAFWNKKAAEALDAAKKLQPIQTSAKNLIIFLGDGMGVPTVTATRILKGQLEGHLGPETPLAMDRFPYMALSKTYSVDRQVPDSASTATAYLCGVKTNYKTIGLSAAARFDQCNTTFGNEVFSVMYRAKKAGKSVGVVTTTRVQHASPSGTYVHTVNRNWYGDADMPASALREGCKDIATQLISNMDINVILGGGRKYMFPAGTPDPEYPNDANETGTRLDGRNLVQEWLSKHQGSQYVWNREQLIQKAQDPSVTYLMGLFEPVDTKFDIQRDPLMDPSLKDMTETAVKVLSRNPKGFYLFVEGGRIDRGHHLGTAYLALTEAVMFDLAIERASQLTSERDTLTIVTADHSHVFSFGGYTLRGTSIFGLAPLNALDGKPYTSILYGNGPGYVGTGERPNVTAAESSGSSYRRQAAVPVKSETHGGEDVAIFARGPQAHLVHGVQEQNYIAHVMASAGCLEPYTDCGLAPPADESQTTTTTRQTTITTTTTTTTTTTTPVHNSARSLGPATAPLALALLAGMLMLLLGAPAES
T10 sequence (P31941 whole entry): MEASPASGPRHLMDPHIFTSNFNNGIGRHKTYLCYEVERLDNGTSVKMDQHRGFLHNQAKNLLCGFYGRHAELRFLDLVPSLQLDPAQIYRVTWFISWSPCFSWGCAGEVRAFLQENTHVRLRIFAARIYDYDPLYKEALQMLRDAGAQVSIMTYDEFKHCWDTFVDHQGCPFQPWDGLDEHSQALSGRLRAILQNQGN
T1 sequence (P41145 whole entry): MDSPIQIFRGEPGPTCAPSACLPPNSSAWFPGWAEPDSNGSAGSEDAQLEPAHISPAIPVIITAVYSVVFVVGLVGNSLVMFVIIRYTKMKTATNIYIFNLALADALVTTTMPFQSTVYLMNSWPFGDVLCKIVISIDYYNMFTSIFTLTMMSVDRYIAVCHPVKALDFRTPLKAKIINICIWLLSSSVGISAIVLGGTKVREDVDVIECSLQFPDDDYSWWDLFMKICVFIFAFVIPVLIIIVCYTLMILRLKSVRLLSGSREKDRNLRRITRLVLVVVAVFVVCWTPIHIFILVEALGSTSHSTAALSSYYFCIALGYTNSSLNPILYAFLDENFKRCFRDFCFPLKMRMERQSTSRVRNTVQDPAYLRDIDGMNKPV
T11 sequence (Q9HC16 whole entry): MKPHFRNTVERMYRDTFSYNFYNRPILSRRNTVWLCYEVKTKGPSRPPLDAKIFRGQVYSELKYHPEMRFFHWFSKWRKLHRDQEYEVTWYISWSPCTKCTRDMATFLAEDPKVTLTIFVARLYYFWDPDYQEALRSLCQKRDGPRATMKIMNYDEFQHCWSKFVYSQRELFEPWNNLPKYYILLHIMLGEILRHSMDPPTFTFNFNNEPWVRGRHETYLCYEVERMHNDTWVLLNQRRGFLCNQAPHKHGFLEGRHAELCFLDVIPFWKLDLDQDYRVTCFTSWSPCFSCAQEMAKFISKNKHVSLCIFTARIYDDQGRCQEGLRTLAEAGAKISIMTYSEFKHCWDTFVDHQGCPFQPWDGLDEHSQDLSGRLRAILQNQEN
T9 sequence (P37231 whole entry, the tested form may be a part): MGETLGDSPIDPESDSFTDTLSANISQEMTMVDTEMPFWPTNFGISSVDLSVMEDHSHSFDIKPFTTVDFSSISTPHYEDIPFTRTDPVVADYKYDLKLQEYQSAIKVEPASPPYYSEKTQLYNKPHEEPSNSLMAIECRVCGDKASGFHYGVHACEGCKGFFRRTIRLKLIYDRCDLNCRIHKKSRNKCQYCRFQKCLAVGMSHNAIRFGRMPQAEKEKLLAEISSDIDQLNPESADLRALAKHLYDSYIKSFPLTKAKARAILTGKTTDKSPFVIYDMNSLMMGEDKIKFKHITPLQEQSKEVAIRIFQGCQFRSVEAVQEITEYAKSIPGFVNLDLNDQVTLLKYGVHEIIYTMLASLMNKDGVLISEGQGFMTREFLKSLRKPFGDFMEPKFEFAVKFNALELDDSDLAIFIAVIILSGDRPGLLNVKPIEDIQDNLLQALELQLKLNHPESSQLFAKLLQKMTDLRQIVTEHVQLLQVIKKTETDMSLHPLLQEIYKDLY
Sequence of Intestinal-type alkaline phosphatase (Homo sapiens, UniProt P09923) (P09923 whole entry): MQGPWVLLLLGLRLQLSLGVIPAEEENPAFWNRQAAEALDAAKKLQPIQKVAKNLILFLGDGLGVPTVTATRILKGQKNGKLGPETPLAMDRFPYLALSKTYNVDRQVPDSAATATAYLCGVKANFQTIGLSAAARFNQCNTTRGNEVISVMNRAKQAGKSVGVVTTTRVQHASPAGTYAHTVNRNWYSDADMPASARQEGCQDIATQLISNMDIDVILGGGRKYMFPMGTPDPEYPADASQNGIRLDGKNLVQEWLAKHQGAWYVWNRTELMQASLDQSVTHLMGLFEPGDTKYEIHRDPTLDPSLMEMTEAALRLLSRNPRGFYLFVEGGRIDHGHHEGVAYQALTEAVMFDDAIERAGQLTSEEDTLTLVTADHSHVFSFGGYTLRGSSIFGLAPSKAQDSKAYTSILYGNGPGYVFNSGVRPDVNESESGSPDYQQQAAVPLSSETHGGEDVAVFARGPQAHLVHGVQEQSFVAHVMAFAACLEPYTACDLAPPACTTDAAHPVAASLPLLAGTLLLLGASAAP
Sequence of Induced myeloid leukemia cell differentiation protein Mcl-1 (Q07820 whole entry): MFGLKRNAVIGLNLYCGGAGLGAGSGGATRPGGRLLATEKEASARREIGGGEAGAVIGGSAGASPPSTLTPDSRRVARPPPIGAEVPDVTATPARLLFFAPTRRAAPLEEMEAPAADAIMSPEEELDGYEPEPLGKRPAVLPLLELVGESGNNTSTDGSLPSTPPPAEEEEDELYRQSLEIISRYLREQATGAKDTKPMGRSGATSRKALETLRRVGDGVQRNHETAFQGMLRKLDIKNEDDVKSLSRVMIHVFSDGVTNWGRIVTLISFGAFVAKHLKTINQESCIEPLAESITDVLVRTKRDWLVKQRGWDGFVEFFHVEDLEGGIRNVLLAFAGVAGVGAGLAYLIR
Sequence of Sphingosine 1-phosphate receptor 1 (P21453 whole entry): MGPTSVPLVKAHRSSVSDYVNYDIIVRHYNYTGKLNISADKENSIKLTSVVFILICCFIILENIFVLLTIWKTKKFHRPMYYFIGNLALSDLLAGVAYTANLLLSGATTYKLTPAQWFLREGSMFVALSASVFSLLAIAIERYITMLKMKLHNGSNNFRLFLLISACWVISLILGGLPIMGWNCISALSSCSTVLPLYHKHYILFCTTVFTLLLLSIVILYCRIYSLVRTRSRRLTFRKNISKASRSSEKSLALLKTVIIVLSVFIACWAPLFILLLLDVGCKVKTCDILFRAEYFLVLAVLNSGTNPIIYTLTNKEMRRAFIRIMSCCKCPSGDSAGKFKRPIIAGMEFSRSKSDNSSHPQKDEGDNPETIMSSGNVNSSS
Sequence of Mu-type opioid receptor (P35372 whole entry): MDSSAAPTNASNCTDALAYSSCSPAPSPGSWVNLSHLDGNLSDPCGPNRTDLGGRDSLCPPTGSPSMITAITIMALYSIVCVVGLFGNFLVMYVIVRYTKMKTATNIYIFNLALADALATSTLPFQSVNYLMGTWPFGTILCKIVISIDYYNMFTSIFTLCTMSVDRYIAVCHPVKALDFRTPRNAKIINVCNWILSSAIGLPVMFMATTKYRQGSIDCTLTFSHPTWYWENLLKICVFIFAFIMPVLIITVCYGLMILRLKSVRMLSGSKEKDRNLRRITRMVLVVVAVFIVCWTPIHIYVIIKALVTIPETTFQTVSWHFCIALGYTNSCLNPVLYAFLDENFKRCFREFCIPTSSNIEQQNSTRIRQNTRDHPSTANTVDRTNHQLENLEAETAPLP
Sequence of Sphingosine 1-phosphate receptor 3 (Q99500 whole entry): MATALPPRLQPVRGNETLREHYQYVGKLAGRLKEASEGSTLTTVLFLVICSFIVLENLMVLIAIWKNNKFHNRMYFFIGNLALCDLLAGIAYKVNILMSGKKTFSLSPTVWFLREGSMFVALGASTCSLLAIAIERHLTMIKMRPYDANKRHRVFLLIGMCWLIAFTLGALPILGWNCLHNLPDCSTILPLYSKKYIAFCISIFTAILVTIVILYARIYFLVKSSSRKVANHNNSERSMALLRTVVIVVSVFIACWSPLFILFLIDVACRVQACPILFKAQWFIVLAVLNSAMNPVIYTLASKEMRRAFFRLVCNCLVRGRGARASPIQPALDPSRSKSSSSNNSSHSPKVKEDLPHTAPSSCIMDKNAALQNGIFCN
Sequence of Delta-type opioid receptor (P41143 whole entry, the tested form may be a part): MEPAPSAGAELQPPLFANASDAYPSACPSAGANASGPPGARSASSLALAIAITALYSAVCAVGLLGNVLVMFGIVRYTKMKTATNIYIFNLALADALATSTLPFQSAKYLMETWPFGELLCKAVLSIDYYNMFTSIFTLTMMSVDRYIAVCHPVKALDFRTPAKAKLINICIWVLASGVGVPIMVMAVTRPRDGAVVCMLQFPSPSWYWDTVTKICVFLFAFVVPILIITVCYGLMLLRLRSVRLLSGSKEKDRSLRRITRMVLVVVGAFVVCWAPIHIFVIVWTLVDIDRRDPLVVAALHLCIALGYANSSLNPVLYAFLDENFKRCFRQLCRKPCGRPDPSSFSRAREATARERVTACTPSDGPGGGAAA
Sequence of Peroxisome proliferator-activated receptor alpha (Q07869 whole entry): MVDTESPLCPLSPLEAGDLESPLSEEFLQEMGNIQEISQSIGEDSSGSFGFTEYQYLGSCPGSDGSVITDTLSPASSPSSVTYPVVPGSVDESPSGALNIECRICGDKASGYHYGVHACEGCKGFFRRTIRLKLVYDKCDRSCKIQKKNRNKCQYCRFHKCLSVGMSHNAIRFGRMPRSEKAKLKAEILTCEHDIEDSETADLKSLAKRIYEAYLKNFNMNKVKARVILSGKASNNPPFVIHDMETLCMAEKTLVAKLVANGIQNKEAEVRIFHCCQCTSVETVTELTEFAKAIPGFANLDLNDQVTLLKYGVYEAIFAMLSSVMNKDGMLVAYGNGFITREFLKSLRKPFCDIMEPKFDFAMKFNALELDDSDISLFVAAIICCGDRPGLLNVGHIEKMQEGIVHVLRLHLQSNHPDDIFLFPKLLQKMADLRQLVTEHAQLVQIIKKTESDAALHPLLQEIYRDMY

Cc1cc(C)c(CSc2nnc(-c3ccccn3)n2Cc2cccs2)c(C)c1
EC50 [1]: > 20 µM (inactive) | EC50 [2]: > 32 µM (inactive) | EC50 [3]: 9.5 µM (active) | EC50 [4]: > 32 µM (inactive)

CCc1ccc(S(=O)(=O)Nc2ccc(-c3nc4cccnc4s3)cc2)s1
IC50 [5]: > 100 µM (inactive)

N/C(=N\N=C\c1ccc2c(c1)OCO2)SC1CC(=O)N(c2ccc(C(=O)O)cc2)C1=O (stereo not given)
IC50 [6]: 7.33 µM (active) | IC50 [7]: 8.58 µM (active) | IC50 [8]: 7.65 µM (active)

C/N=C1\SC(=Cc2cc(C)n(Cc3c(F)cccc3F)c2C)C(=O)N1OC
EC50 [9]: 0.339 µM (active) | EC50 [10]: 0.113 µM (active) | EC50 [11]: 0.0886 µM (active) | EC50 [12]: > 50 µM (inactive) | EC50 [13]: > 50 µM (inactive)

O=C(O)Cc1ccc(O)c(O)c1 [3,4-DIHYDROXYPHENYLACETIC ACID]
EC50 [14]: 49.8 µM (active) | IC50 [15]: > 100 µM (inactive) | EC50 [16]: 28.9 µM (active) | EC50 [17]: > 100 µM (inactive) | IC50 [18]: 4.17 µM (active)

O=C(O)CCN1C(=O)/C(=C\c2cccc(OCc3ccccc3)c2)SC1=S
IC50 [19]: 0.276 µM (active) | EC50 [20]: > 3 µM (inactive) | EC50 [21]: 1.5 µM (active)

O=C1NC(=S)NC(=O)C1=Cc1ccc2c(c1)CCN2CCCCl
EC50 [22]: 76.6 µM (active) | EC50 [23]: 55.5 µM (active) | IC50 [24]: 9.27 µM (active) | IC50 [25]: 28.8 µM (active) | EC50 [17]: 96.3 µM (active) | IC50 [26]: 6.63 µM (active) | IC50 [27]: > 54 µM (active) | IC50 [28]: 4.14 µM (active) | IC50 [29]: 2.91 µM (active)

Source: ChEMBL document CHEMBL1201862, “PubChem BioAssay data set” (2004)
